Measured values: patent US9999616B2 (ZENITH EPIGENETICS LTD., priority 2013, dated 2018)
pIC50: −log10 of the molar value.

Key:
hIL-6 mRNA = experiment: Inhibition of hIL-6 mRNA transcription in LPS-stimulated U937 macrophages; format: cell-based, Human; details: Homo sapiens, U-937, PMA-differentiated U937 cells, 1 h pretreatment, LPS 3 h, read-out: IL-6 activity
How it was run: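 PMA-differentiated U937 macrophages (60 ng/mL PMA, 3 days) pretreated 1 h with compound in 0.1% DMSO, then stimulated with 1 ug/mL E. coli LPS for 3 h at 37° C. IL-6 mRNA quantified by one-step TaqMan qRT-PCR, normalized to cyclophilin; fold expression relative to control, triplicate wells.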

[1] = system: c-myc in Human AML MV4-11 cells; experiment: Inhibition of cMYC expression (mRNA, real-time PCR) in MV4-11 cells; format: cell-based; details: 3 h treatment, cMYC mRNA by real-time PCR
How it was run: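 MV4-11 cells in IMDM with 10% FBS were treated with increasing compound concentrations (DMSO 0.1%) for 3 h at 37 °C, in triplicate. Isolated mRNA was quantified by one-step TaqMan RT-qPCR, cMYC Ct normalized to cyclophilin, and fold expression given relative to DMSO control.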

hIL-17 mRNA = experiment: Inhibition of hIL-17 mRNA transcription in OKT3-stimulated peripheral blood mononuclear cells; format: cell-based; details: human PBMC, OKT3 stimulation 6 h, read-out: IL-17 Activity
Method: Human peripheral blood mononuclear cells were plated (2.0×10^5 cells per well) in a 96-well plate in 45 μL OpTimizer T Cell expansion media (Life Technologies) containing 20 ng/ml IL-2 and penicillin/streptomycin. The cells were treated with increasing concentrations of the test compound or DMSO (0.1%), and incubated at 37° C., 5% CO2 for 1 h before addition of 10× stock OKT3 antibody at 10 ug/ml in media. Triplicate wells were used for each concentration. Cells were incubated at 37° C., 5% CO2 for 6 h before the cells were harvested. At time of harvest, cells were pelleted by centrifugation at 800 rpm for 5 min. Cells were harvested using the mRNA Catcher PLUS kit according to manufacturer's instructions. The eluted mRNA was then used in a one-step quantitative real-time PCR reaction, using components of the RNA UltraSense™ One-Step Kit (Life Technologies) together with Applied Biosystems TaqMan® primer-probes for hIL-17 and Cyclophilin. Real-time PCR plates were run on a ViiA™7 real time PCR machine (Applied Biosystems), data was analyzed, normalizing the Ct values for hIL-17 to an internal control, prior to determining the fold induction of each unknown sample, relative to the control.

[2] = biological target: Brd4 bromodomain 1 (BRD4(1)) (Homo sapiens, UniProt O60885); experiment: Inhibition of tetra-acetylated histone H4 binding to Brd4 bromodomain 1, measured by FRET (HTRF); design: made in house; host or cells: E. coli BL21(DE3); details: 2 h at room temperature
How it was run: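 N-terminally His-tagged bromodomain (200 nM), expressed in E. coli and purified by Ni affinity and size exclusion, was incubated with biotinylated tetra-acetylated H4 peptide (25-50 nM), Eu-cryptate streptavidin and XL665 anti-His in HEPES pH 7.4 buffer with 0.2% DMSO. Reactions ran 2 h at room temperature. IC50 came from the 665/620 nm fluorescence decrease.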

Human AML MV-4-11 cells = experiment: Inhibition of cell proliferation in MV4-11 cells (CellTiter Aqueous One); format: cell-based; details: for pIC50: MV4-11, 72 h
How it was run: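 MV4-11 cells, 5×10^4 per well in IMDM with 10% FBS, were exposed to increasing compound concentrations or 0.1% DMSO for 72 h at 37 °C in triplicate. Viability was read by MTS (CellTiter Aqueous One) absorbance at 490 nm after 3-4 h. IC50 was derived from background-corrected signal relative to DMSO.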

SMILES	pIC50 (hIL-6 mRNA)	pIC50 [1]	pIC50 (hIL-17 mRNA)	pIC50 [2]	pIC50 (Human AML MV-4-11 cells)	Cell Proliferation activity (Human AML MV-4-11 cells; 72 h)
Cc1noc(C)c1-c1cc(Nc2ccccc2)c2nc[nH]c2c1 [Example Compound 7, 6-(3,5-dimethylisoxazol-4-yl)-N-phenyl-1H-benzo[d] imidazol-4-amine]	≥ 6.52	5.52 to 6.52	5.52 to 6.52	≥ 6.52	5.52 to 6.52	
Cc1noc(C)c1-c1cc2c(c(-c3c(C)noc3C)c1)OCC(=O)N2 [Example Compound 11, 6,8-bis(3,5-dimethylisoxazol-4-yl)-2H-benzo[b][1,4]oxazin-3(4H)-one]	5.52 to 6.52	5.52 to 6.52	5.52 to 6.52	≥ 6.52	5.52 to 6.52	
Cc1noc(C)c1-c1cc2c(c(-c3c(C)noc3C)c1)OCCN2 [Example Compound 13, 6,8-bis(3,5-dimethylisoxazol-4-yl)-3,4-dihydro-2H-benzo[b][1,4]oxazine]	5.52 to 6.52	5.52 to 6.52	5.52 to 6.52	≥ 6.52	5.52 to 6.52	
Cc1noc(C)c1-c1cc(-c2ccccc2C(F)(F)F)c2nc[nH]c2c1 [Example Compound 19, 3,5-dimethyl-4-(4-(2-(trifluoromethyl)phenyl)-1H-benzo[d]imidazol-6-yl)isoxazole]	5.52 to 6.52	5.52 to 6.52	≥ 6.52	5.52 to 6.52	5.52 to 6.52	
Cc1ccncc1-c1cc(-c2c(C)noc2C)cc2[nH]cnc12 [Example Compound 20, 3,5-dimethyl-4-(4-(4-methylpyridin-3-yl)-1H-benzo[d]imidazol-6-yl)isoxazole]	≥ 6.52	5.52 to 6.52	5.52 to 6.52	≥ 6.52	5.52 to 6.52	
Cc1noc(C)c1-c1cc(-c2c(C)noc2C)c2[nH]ncc2c1 [Example Compound 21, 4,4′-(1H-indazole-5,7-diyl)bis(3,5-dimethylisoxazole)]	5.52 to 6.52	5.52 to 6.52	5.52 to 6.52	≥ 6.52	5.52 to 6.52	
Cc1noc(C)c1Nc1cc(-c2c(C)noc2C)cc2[nH]cnc12 [Example Compound 42, N-(6-(3,5-dimethyl-isoxazol-4-yl)-1H-benzo[d]imidazol-4-yl)-3,5-dimethyl-isoxazol-4-amine]	≥ 6.52	≥ 6.52	5.52 to 6.52	≥ 6.52	≥ 6.52	
Cc1noc(C)c1-c1cc(-c2c(C)noc2C)c2nc(C(C)C)[nH]c2c1 [Example Compound 45, 4,4′-(2-isopropyl-1H-benzo[d]imidazole-4,6-diyl)bis(3,5-dimethylisoxazole)]		5.52 to 6.52	5.52 to 6.52	≥ 6.52	5.52 to 6.52	
COc1ncccc1-c1cc(-c2c(C)noc2C)cc2[nH]cnc12 [Example Compound 48, 4-(4-(2-methoxy-pyridin-3-yl)-1H-benzo[d]imidazol-6-yl)-3,5-dimethyl isoxazole]		5.52 to 6.52	5.52 to 6.52	≥ 6.52	5.52 to 6.52	
Cc1nc2c(-c3cnccc3C(F)(F)F)cc(-c3c(C)noc3C)cc2[nH]1 [Example Compound 50, 3,5-dimethyl-4-(2-methyl-4-(4-(trifluoro-methyl)pyridin-3-yl)-1H-benzo[d]imidazol-6-yl)isoxazole]	≥ 6.52	5.52 to 6.52	5.52 to 6.52	≥ 6.52	≥ 6.52	
Cc1nc2c(-c3cc(C#N)ccc3C)cc(-c3c(C)noc3C)cc2[nH]1 [Example Compound 58, 3-(6-(3,5-dimethyl-isoxazol-4-yl)-2-methyl-1H-benzo[d]imidazol-4-yl)-4-methyl-benzonitrile]	≥ 6.52		5.52 to 6.52	≥ 6.52	≥ 6.52	
Cc1nc2c(-c3cccnc3C(F)(F)F)cc(-c3c(C)noc3C)cc2[nH]1 [Example Compound 59, 3,5-dimethyl-4-(2-methyl-4-(2-(trifluoro-methyl)pyridin-3-yl)-1H-benzo[d]imidazol-6-yl)isoxazole]	≥ 6.52		5.52 to 6.52	≥ 6.52	≥ 6.52	
Cc1nc2c(-c3c(C(F)(F)F)nn(C)c3C)cc(-c3c(C)noc3C)cc2[nH]1 [Example Compound 66, 4-(4-(1,5-dimethyl-3-(trifluoro-methyl)-1H-pyrazol-4-yl)-2-methyl-1H-benzo[d]imidazol-6-yl)-3,5-dimethyl-isoxazole]	≥ 6.52	5.52 to 6.52	≥ 6.52	≥ 6.52	≥ 6.52	
Cc1nc2c(-c3ccc(N)nc3C)cc(-c3c(C)noc3C)cc2[nH]1 [Example Compound 68, 5-(6-(3,5-dimethyl-isoxazol-4-yl)-2-methyl-1H-benzo[d]imidazol-4-yl)-6-methyl-pyridin-2-amine]	≥ 6.52	≥ 6.52	≥ 6.52	≥ 6.52	≥ 6.52	
Cc1noc(C)c1-c1cc(-c2cccc(C(N)=O)c2C)c2nc[nH]c2c1 [Example Compound 73, 3-(6-(3,5 dimethyl-isoxazol-4-yl)-1H-benzo[d]imidazol-4-yl)-2-methyl-benzamide]	≥ 6.52	≥ 6.52	5.52 to 6.52	≥ 6.52	≥ 6.52	

Continued, in another order:

pIC50 (hIL-6 mRNA)	pIC50 [1]	pIC50 (hIL-17 mRNA)	pIC50 [2]	pIC50 (Human AML MV-4-11 cells)	SMILES	Cell Proliferation activity (Human AML MV-4-11 cells; 72 h)
5.52 to 6.52	≥ 6.52	≥ 6.52	≥ 6.52	≥ 6.52	CCOc1nc2c(-c3cccnc3C)cc(-c3c(C)noc3C)cc2[nH]1 [Example Compound 81, 4-(2-ethoxy-4-(2-methylpyridin-3-yl)-1H-benzo[d]imidazol-6-yl)-3,5-dimethyl isoxazole]	
≥ 6.52	5.52 to 6.52	5.52 to 6.52	≥ 6.52	5.52 to 6.52	Cc1nc2c(-c3cc(F)ccc3C)cc(-c3c(C)noc3C)cc2[nH]1 [Example Compound 92, 4-(4-(5-fluoro-2-methyl-phenyl)-2-methyl-1H-benzo[d]imidazol-6-yl)-3,5-dimethyl isoxazole]	
5.52 to 6.52	5.52 to 6.52	5.52 to 6.52	≥ 6.52	5.52 to 6.52	Cc1nc2c(-c3ccc4sncc4c3)cc(-c3c(C)noc3C)cc2[nH]1 [Example Compound 137, 4-(4-(benzo[d]isothiazol-5-yl)-2-methyl-1H-benzo[d]imidazol-6-yl)-3,5-dimethyl isoxazole]	
≥ 6.52	≥ 6.52		≥ 6.52	5.52 to 6.52	Cc1noc(C)c1-c1cc(-c2c(C)noc2C)c2nc(NC3CCOCC3)[nH]c2c1 [Example Compound 229, 4,6-bis(3,5-dimethyl-isoxazol-4-yl)-N-(tetrahydro-2H-pyran-4-yl)-1H-benzo[d] imidazol-2-amine]	
4.52 to 5.52	5.52 to 6.52		5.52 to 6.52		Cc1noc(C)c1-c1cc(-c2ccnn2C)cc2[nH]cnc12 [Example Compound 230, 3,5-dimethyl-4-(6-(1-methyl-1H-pyrazol-5-yl)-1H-benzo[d]imidazol-4-yl)isoxazole]	Not active
≥ 6.52	≥ 6.52		≥ 6.52	≥ 6.52	Cc1noc(C)c1-c1cc(-c2c(C)noc2C)c2nc(N3CCN(C)CC3)[nH]c2c1 [Example Compound 231, 4,4′-(2-(4-methyl-piperazin-1-yl)-1H-benzo[d]imidazole-4,6-diyl) bis(3,5-dimethylisoxazole)]	
